In patent US11708348B2, “Protease inhibitors for treatment of coronavirus infections” (The Scripps Research Institute, priority 2021, dated 2023):
Where two headings read alike, the source gives them in different places.

Test system: SARS-CoV-2 strain USA-WA1/2020
Experiment: microbe, parasite or virus in culture
Type: cell-based
Conditions: Severe acute respiratory syndrome coronavirus 2, HeLa-ACE2, 24 h, HeLa-ACE2 cells, SARS-CoV-2 infection, 24 h, read-out: EC50, uM (Hela)

Structure (SMILES): CC1(C[C@H](NC(=O)C(=O)NC2(C)CC2)C(=O)N[C@@H](C[C@@H]2CCNC2=O)C(=O)COC(F)(F)F)CC1 [Compound 577, Nl-(l-methylcyclo-propyl)-N2-(3-(1-methylcyclopropyl)-1-oxo-1-(((S)-3-oxo-1-((S)-2-oxopyrrolidin-3-yl)-4-(trifluoromethoxy)butan-2-yl)amino)propan-2-yl)oxalamide]
- EC50: < 0.05 µM

Structure (SMILES): CC1(CC(NC(=O)C(=O)NC2CC2)C(=O)N[C@@H](C[C@@H]2CCNC2=O)C(=O)COC(F)(F)F)CC1 (stereo partly drawn) [Compound 578, N1-cyclopropyl-N2-(3-(1-methylcyclopropyl)-1-oxo-1-(((S)-3-oxo-1-((S)-2-oxopyrrolidin-3-yl)-4-(trifluoromethoxy)butan-2-yl)amino)propan-2-yl)oxalamide]
- EC50: < 0.05 µM

Structure (SMILES): O=C(NC12CC(F)(C1)C2)C(=O)N[C@]1(C(=O)N[C@@H](C[C@@H]2CCNC2=O)C(=O)COC(F)(F)F)C[C@H]1C1CC1 [Compound 579, N1-(3-fluorobicyclo-[1.1.1]pentan-1-yl)-N2-((1S,2R)-2-(((S)-3-oxo-1-((S)-2-oxopyrrolidin-3-yl)-4-(trifluoromethoxy)butan-2-yl)carbamoyl)-[1,1′-bi(cyclopropan)]-2-yl)oxalamide]
- EC50 (given as bound): > 1 µM

Structure (SMILES): CC(C)C[C@H](NC(=O)c1ncon1)C(=O)N[C@@H](C[C@@H]1CCNC1=O)C(=O)COC(F)(F)F [Compound 580, N-((S)-4-methyl-1-oxo-1-(((S)-3-oxo-1-((S)-2-oxopyrrolidin-3-yl)-4-(trifluoromethoxy)butan-2-yl)amino)pentan-2-yl)-1,2,4-oxadiazole-3-carboxamide]
- EC50: 0.2 to 0.5 µM

Structure (SMILES): C[C@@]12C[C@@H](C(=O)N[C@@H](C[C@@H]3CCNC3=O)C(=O)COC(F)(F)F)N(C(=O)C(=O)Nc3ccccc3F)[C@@H]1C2 [Compound 581, (1R, 3S, 5R)-2-(2-((2-fluorophenyl)amino)-2-oxoacetyl)-5-methyl-N-((S)-3-oxo-1-((S)-2-oxopyrrolidin-3-yl)-4-(trifluoromethoxy)butan-2-yl)-2-azabicyclo-[3.1.0]hexane-3-carboxamide]
- EC50 (given as bound): > 1 µM

Structure (SMILES): CC1(C[C@H](NC(=O)C(=O)NC23CC(F)(C2)C3)C(=O)N[C@@H](C[C@@H]2CCNC2=O)C(=O)COC(F)(F)F)CC1 [Compound 582, N1-(3-fluorobicyclo-[1.1.1]pentan-1-yl)-N2-((S)-3-(l-methyl-cyclopropyl)-1-oxo-1-(((S)-3-oxo-1-((S)-2-oxopyrrolidin-3-yl)-4-(trifluoromethoxy)butan-2-yl)amino)propan-2-yl)oxalamide]
- EC50: < 0.05 µM

Structure (SMILES): O=C(Nc1ccccc1F)C(=O)N1CC[C@H]1C(=O)N[C@@H](C[C@@H]1CCNC1=O)C(=O)COC(F)(F)F [Compound 583, (S)-1-(2-((2-fluoro-phenyl)amino)-2-oxoacetyl)-N-((S)-3-oxo-1-((S)-2-oxopyrrolidin-3-yl)-4-(trifluoromethoxy)butan-2-yl)azetidine-2-carboxamide]
- EC50: 0.05 to 0.2 µM

Structure (SMILES): O=C(Nc1ccccc1F)C(=O)N1CCCCC[C@H]1C(=O)N[C@@H](C[C@@H]1CCNC1=O)C(=O)COC(F)(F)F [Compound 584, (S)-1-(2-((2-fluorophenyl)amino)-2-oxoacetyl)-N-((S) -3-oxo-1-((S)-2-oxopyrrolidin-3-yl)-4-(trifluoromethoxy)butan-2-yl)azepane-2-carboxamide]
- EC50: < 0.05 µM

Structure (SMILES): CC1(NC(=O)C(=O)N[C@@H](CC2CC2)C(=O)N[C@@H](C[C@@H]2CCNC2=O)C(=O)COC(F)(F)F)CC1 [Compound 585, N1-((S)-3-cyclopropyl-1-oxo-1-(((S)-3-oxo-1-((S)-2-oxopyrrolidin-3-yl)-4-(trifluoromethoxy)butan-2-yl)amino)propan-2-yl)-N2-(1-methylcyclo-propyl)oxalamide]
- EC50: < 0.05 µM

Structure (SMILES): O=C(NC1CC1)C(=O)N[C@@H](CC1CC1)C(=O)N[C@@H](C[C@@H]1CCNC1=O)C(=O)COC(F)(F)F [Compound 586, N1-cyclopropyl-N2-((S)-3-cyclopropyl-1-oxo-1-(((S)-3-oxo-1-((S)-2-oxopyrrolidin-3-yl)-4-(trifluoromethoxy)butan-2-yl)amino)propan-2-yl)oxalamide]
- EC50: < 0.05 µM

Structure (SMILES): O=C(NC1CC(F)(F)C1)C(=O)N1CC2(CC2)C[C@H]1C(=O)N[C@@H](C[C@@H]1CCNC1=O)C(=O)COC(F)(F)F [Compound 588, (S)-5-(2-((3,3-difluorocyclobutyl)-amino)-2-oxoacetyl)-N-((S)-3-oxo-1-((S)-2-oxopyrrolidin-3-yl)-4-(trifluoromethoxy)butan-2-yl)-5-azaspiro[2.4]-heptane-6-carboxamide]
- EC50: 0.2 to 0.5 µM

Structure (SMILES): O=C(Nc1ccccc1F)C(=O)N[C@@H](Cc1ccc(F)c(F)c1)C(=O)N[C@@H](C[C@@H]1CCNC1=O)C(=O)COC(F)(F)F [Compound 589, N1-((S)-3-(3,4-difluorophenyl)-1-oxo-1-(((S)-3-oxo-1-((S)-2-oxopyrrolidin-3-yl)-4-(trifluoromethoxy)butan-2-yl)amino)propan-2-yl)-N2-(2-fluorophenyl)oxalamide]
- EC50: 0.05 to 0.2 µM

Structure (SMILES): CC(C)(NC(=O)C(=O)N1CC2(CC2)C[C@H]1C(=O)N[C@@H](C[C@@H]1CCNC1=O)C(=O)COC(F)(F)F)C(F)(F)F [Compound 590, (S)-N-((S)-3-oxo-1-((S)-2-oxopyrrolidin-3-yl)-4-(trifluoromethoxy)butan-2-yl)-5-(2-oxo-2-((1,1,1-trifluoro-2-methylpropan-2-yl)amino)acetyl)-5-azaspiro[2.4]heptane-6-carboxamide]
- EC50: 0.05 to 0.2 µM

Structure (SMILES): O=C(Nc1ccc(Cl)cc1F)C(=O)N1CC2(CC2)C[C@H]1C(=O)N[C@@H](C[C@@H]1CCNC1=O)C(=O)COC(F)(F)F [Compound 591, (S)-5-(2-((4-chloro-2-fluorophenyl)amino)-2-oxoacetyl)-N-((S)-3-oxo-1-((S)-2-oxopyrrolidin-3-yl)-4-(trifluoromethoxy)butan-2-yl)-5-azaspiro[2.4]-heptane-6-carboxamide]
- EC50: < 0.05 µM

Structure (SMILES): CC(C)CC(C(=O)N[C@@H](C[C@@H]1CCNC1=O)C(=O)COC(F)(F)F)n1cc(C(=O)NC(C)(C)C)nn1 (stereo partly drawn) [Compound 592, N-(tert-butyl)-1-(4-methyl-1-oxo-1-(((S)-3-oxo-1-((S)-2-oxopyrrolidin-3-yl)-4-(trifluoromethoxy)butan-2-yl)amino)pentan-2-yl)-1H-1,2,3-triazole-4-carboxamide]
- EC50: 0.05 to 0.2 µM

Structure (SMILES): O=C1NCC[C@H]1C[C@H](NC(=O)[C@@H]1CC2(CC2)CN1C(=O)c1ncccc1F)C(=O)COC(F)(F)F [Compound 593, (S)-5-(3-fluoropicolinoyl)-N-((S)-3-oxo-1-((S)-2-oxopyrrolidin-3-yl)-4-(trifluoromethoxy)butan-2-yl)-5-azaspiro[2.4]-heptane-6-carboxamide]
- EC50: 0.2 to 0.5 µM

Structure (SMILES): CC1(C)[C@@H]2[C@@H](C(=O)N[C@@H](C[C@@H]3CCNC3=O)C(=O)COC(F)(F)F)N(C(=O)c3cc(F)cc(F)c3O)C[C@@H]21 [Compound 594, (1R,2S,5S)-3-(3,5-difluoro-2-hydroxybenzoyl)-6,6-dimethyl-N-((S)-3-oxo-1-((S)-2-oxopyrrolidin-3-yl)-4-(trifluoromethoxy)butan-2-yl)-3-azabicyclo-[3.1.0]hexane-2-carboxamide]
- EC50: 0.05 to 0.2 µM

Structure (SMILES): O=C1NCC[C@H]1C[C@H](NC(=O)[C@@H]1CC2(CC2)CN1C(=O)[C@H](CO)c1ccccc1)C(=O)COC(F)(F)F [Compound 595, (S)-5-((S)-3-hydroxy-2-phenylpropanoyl)-N-((S)-3-oxo-1-((S)-2-oxopyrrolidin-3-yl)-4-(trifluoromethoxy)butan-2-yl)-5-azaspiro[2.4]-heptane-6-carboxamide]
- EC50: 0.05 to 0.2 µM
